From the NIST ThermoML archive (doi:10.1016/j.jct.2017.09.022)
“And” between values parts separate entries of the source, which are not always exact repeats. Equal entries are not always repeated.

Assay: molar heat capacity at constant pressure
Conditions: 101.33 kPa, Crystal, Small (less than 1 g) adiabatic calorimetry

C[C@@H](O)[C@H](N)C(=O)O [L-threonine]
Conditions | molar heat capacity at constant pressure
63.96 K | 43.87 J/K/mol
64.76 K | 44.47 J/K/mol
65.57 K | 44.98 J/K/mol
66.38 K | 45.55 J/K/mol
67.19 K | 46.09 J/K/mol
67.99 K | 46.67 J/K/mol
68.8 K | 47.24 J/K/mol
69.61 K | 47.68 J/K/mol
70 K | 48.06 J/K/mol
70.54 K | 48.31 J/K/mol
71.58 K | 49.14 J/K/mol
72.63 K | 49.7 J/K/mol
73.67 K | 50.33 J/K/mol
74.72 K | 50.78 J/K/mol
75.77 K | 51.34 J/K/mol
76.82 K | 51.96 J/K/mol
77.87 K | 52.51 J/K/mol
78.92 K | 53.08 J/K/mol
79.65 K | 53.03 J/K/mol
79.97 K | 53.66 J/K/mol
80 K | 53.55 J/K/mol
80.45 K | 53.52 J/K/mol
81.02 K | 54.31 J/K/mol
81.25 K | 53.96 J/K/mol
82.06 K | 54.87 J/K/mol and 54.48 J/K/mol
82.86 K | 54.97 J/K/mol
83.11 K | 55.52 J/K/mol
83.66 K | 55.42 J/K/mol
84.17 K | 56.16 J/K/mol
84.46 K | 55.88 J/K/mol
85.26 K | 56.34 J/K/mol
86.06 K | 56.87 J/K/mol
86.86 K | 57.38 J/K/mol
87.65 K | 57.86 J/K/mol
88.45 K | 58.33 J/K/mol
89.25 K | 58.77 J/K/mol
90 K | 59.28 J/K/mol
90.05 K | 59.23 J/K/mol
90.85 K | 59.72 J/K/mol
91.64 K | 60.19 J/K/mol
92.44 K | 60.74 J/K/mol
93.24 K | 61.3 J/K/mol
94.04 K | 61.77 J/K/mol
94.84 K | 62.19 J/K/mol
95.63 K | 62.65 J/K/mol
96.43 K | 63.12 J/K/mol
97.23 K | 63.64 J/K/mol
98.02 K | 64.16 J/K/mol
98.82 K | 64.62 J/K/mol
99.62 K | 65.04 J/K/mol
100 K | 65.27 J/K/mol
100.5 K | 65.53 J/K/mol
101.45 K | 66.12 J/K/mol
102.41 K | 66.61 J/K/mol
103.36 K | 67.11 J/K/mol
104.32 K | 67.67 J/K/mol
105.27 K | 68.2 J/K/mol
106.22 K | 68.79 J/K/mol
107.18 K | 69.35 J/K/mol
108.13 K | 69.83 J/K/mol
109.09 K | 70.36 J/K/mol
110 K | 70.84 J/K/mol
110.05 K | 70.8 J/K/mol
111 K | 71.32 J/K/mol
111.95 K | 71.94 J/K/mol
112.91 K | 72.42 J/K/mol
113.86 K | 72.95 J/K/mol
114.82 K | 73.43 J/K/mol
115.77 K | 73.97 J/K/mol
116.72 K | 74.36 J/K/mol
117.68 K | 74.92 J/K/mol
118.63 K | 75.5 J/K/mol
119.59 K | 75.89 J/K/mol
120 K | 76.16 J/K/mol
120.53 K | 76.35 J/K/mol
121.49 K | 76.8 J/K/mol
122.44 K | 77.45 J/K/mol
123.39 K | 77.91 J/K/mol
124.35 K | 78.3 J/K/mol
125.3 K | 78.8 J/K/mol
126.25 K | 79.27 J/K/mol
127.21 K | 79.82 J/K/mol
128.16 K | 80.26 J/K/mol
129.11 K | 80.78 J/K/mol
130 K | 81.23 J/K/mol
130.07 K | 81.26 J/K/mol
131.02 K | 81.7 J/K/mol
131.97 K | 82.11 J/K/mol
132.93 K | 82.72 J/K/mol
133.87 K | 83.14 J/K/mol
134.82 K | 83.73 J/K/mol
135.76 K | 84.14 J/K/mol
136.71 K | 84.56 J/K/mol
137.66 K | 85.22 J/K/mol
138.61 K | 85.64 J/K/mol
139.56 K | 85.97 J/K/mol
140 K | 86.22 J/K/mol
140.51 K | 86.55 J/K/mol
141.46 K | 87.05 J/K/mol
142.41 K | 87.47 J/K/mol
143.36 K | 87.8 J/K/mol
144.31 K | 88.38 J/K/mol
